Results from article PMC8155809 (The Journal of General Physiology, 2021).

Target: T1, Human TREK-2 (KCNK10) crystal construct (Homo sapiens, UniProt P57789)
T1 construct: “crystal construct” protein (Gly67 to Glu340); made in house
T1 sequence (P57789 67-340 isoform P57789-4): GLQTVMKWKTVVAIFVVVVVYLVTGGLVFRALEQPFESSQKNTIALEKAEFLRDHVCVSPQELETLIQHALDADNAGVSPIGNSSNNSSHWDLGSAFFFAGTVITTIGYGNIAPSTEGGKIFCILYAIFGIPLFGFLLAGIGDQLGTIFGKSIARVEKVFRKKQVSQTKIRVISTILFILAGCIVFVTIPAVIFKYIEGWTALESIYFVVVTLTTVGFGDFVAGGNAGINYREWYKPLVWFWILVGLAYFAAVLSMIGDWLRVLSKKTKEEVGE
Test: Single-channel recordings of purified TREK-2 reconstituted in lipid bilayers
Assay type: biochemical
Conditions: for Po (single-channel open probability) / block of channel (Po): 10 µM NFx; for Po (single-channel open probability): +60 mV; for AC1, area of closed state 1 / AC2, area of closed state 2 / AC3, area of closed state 3 / AC4, area of closed state 4 / AC5, area of closed state 5 / τC1, mean lifetime of closed state 1 / τC2, mean lifetime of closed state 2 / τC3, mean lifetime of closed state 3 / τC4, mean lifetime of closed state 4 / τC5, mean lifetime of closed state 5 / τO, mean open time: 100 μM NFx
Method: Human TREK-2 (KCNK10) “crystal construct” protein (Gly67 to Glu340) was expressed and purified as previously described ([Dong et al., 2015]), with the exception that it was purified in 1% wt/vol n-octyl-β-D-glucoside, 0.1% wt/vol cholesteryl hemisuccinate. 1,2-Diphytanoyl-sn-glycero-3-phosphocholine was dissolved in chloroform to a concentration of 10 mM and stored at −20°C. The GUVs were then made by electroformation in a 1 M sorbitol solution using Vesicle Prep Pro (Nanion Technologies). Purified TREK-2 was then mixed with GUVs to a final concentration of ∼1–5 µg/ml and incubated overnight at 4°C with 0.5 mg/ml Bio-Beads (Bio-Rad) before use.
All electrophysiological recordings were performed with the Nanion Port-a-Patch system connected to an Axopatch 200B amplifier via a Digidata 1440A digitizer (Molecular Devices). Data were filtered at 5 kHz and recorded at a 200-kHz sampling rate with program Clampex (Molecular Devices). Experiments were performed in symmetrical 200 mM KCl and 10 mM HEPES (pH 6.0 with KOH) solutions. Single-channel currents were idealized using 50% threshold criterion with program Clampfit (Molecular Devices) at an imposed resolution of 50 µs. Only one open and one closed level were considered in the analysis; all subconductance states were neglected (these typically comprised less than 1% of open- and closed-level events of channels in the “high PO” mode). Analysis of amplitude and dwell-time distributions was performed in Origin (OriginLab Corporation) and an in-house software written in Mathematica (Wolfram Technologies). Empirical correction for open times due to missed events was performed as described previously ([Davies et al., 1992]). Critical time for burst analysis was determined using Colquhoun and Sakmann criterion ([Colquhoun and Sakmann, 1985]).

## NCCC(Oc1ccc(C(F)(F)F)cc1)c1ccccc1 (stereo not drawn) [NFx, norfluoxetine]
Channel with high Po (Fig. S5B)
  Po (single-channel open probability): 0.70
Channel with low Po (Fig. S5A)
  Po (single-channel open probability): 0.048
high-Po mode
  block of channel (Po): 20 ± 0.02%
Standard mode
  block of channel (Po): 23 ± 0.05%
V 20 mV, high-Po mode
  AC1, area of closed state 1: 74%
  AC2, area of closed state 2: 15.5%
  AC3, area of closed state 3: 4.4%
  AC4, area of closed state 4: 4.9%
  AC5, area of closed state 5: 1.5%
  τC1, mean lifetime of closed state 1: 0.041 ms
  τC2, mean lifetime of closed state 2: 0.30 ms
  τC3, mean lifetime of closed state 3: 1.3 ms
  τC4, mean lifetime of closed state 4: 23 ms
  τC5, mean lifetime of closed state 5: 90 ms
  τO, mean open time: 0.53 ms
V 40 mV, high-Po mode
  AC1, area of closed state 1: 75%
  AC2, area of closed state 2: 13.7%
  AC3, area of closed state 3: 3.3%
  AC4, area of closed state 4: 6.2%
  AC5, area of closed state 5: 2.0%
  τC1, mean lifetime of closed state 1: 0.083 ms
  τC2, mean lifetime of closed state 2: 0.36 ms
  τC3, mean lifetime of closed state 3: 4.8 ms
  τC4, mean lifetime of closed state 4: 39 ms
  τC5, mean lifetime of closed state 5: 160 ms
  τO, mean open time: 0.69 ms
V 60 mV, high-Po mode
  AC1, area of closed state 1: 75%
  AC2, area of closed state 2: 13.9%
  AC3, area of closed state 3: 3.5%
  AC4, area of closed state 4: 5.7%
  AC5, area of closed state 5: 1.6%
  τC1, mean lifetime of closed state 1: 0.059 ms
  τC2, mean lifetime of closed state 2: 0.31 ms
  τC3, mean lifetime of closed state 3: 2.1 ms
  τC4, mean lifetime of closed state 4: 41 ms
  τC5, mean lifetime of closed state 5: 160 ms
  τO, mean open time: 0.60 ms
V 80 mV, high-Po mode
  AC1, area of closed state 1: 76%
  AC2, area of closed state 2: 11.9%
  AC3, area of closed state 3: 1.9%
  AC4, area of closed state 4: 7.7%
  AC5, area of closed state 5: 2.6%
  τC1, mean lifetime of closed state 1: 0.055 ms
  τC2, mean lifetime of closed state 2: 0.32 ms
  τC3, mean lifetime of closed state 3: 2.9 ms
  τC4, mean lifetime of closed state 4: 78 ms
  τC5, mean lifetime of closed state 5: 490 ms
  τO, mean open time: 0.49 ms
V 100 mV, high-Po mode
  AC1, area of closed state 1: 77%
  AC2, area of closed state 2: 9.2%
  AC3, area of closed state 3: 2.5%
  AC4, area of closed state 4: 7.5%
  AC5, area of closed state 5: 4.1%
  τC1, mean lifetime of closed state 1: 0.064 ms
  τC2, mean lifetime of closed state 2: 0.30 ms
  τC3, mean lifetime of closed state 3: 1.9 ms
  τC4, mean lifetime of closed state 4: 72 ms
  τC5, mean lifetime of closed state 5: 220 ms
  τO, mean open time: 0.44 ms
V −20 mV, high-Po mode
  AC1, area of closed state 1: 81%
  AC2, area of closed state 2: 10.7%
  AC3, area of closed state 3: 2.5%
  AC4, area of closed state 4: 5.0%
  AC5, area of closed state 5: 0.6%
  τC1, mean lifetime of closed state 1: 0.061 ms
  τC2, mean lifetime of closed state 2: 0.35 ms
  τC3, mean lifetime of closed state 3: 2.5 ms
  τC4, mean lifetime of closed state 4: 45 ms
  τC5, mean lifetime of closed state 5: 260 ms
  τO, mean open time: 0.54 ms
V −40 mV, high-Po mode
  AC1, area of closed state 1: 85%
  AC2, area of closed state 2: 9.3%
  AC3, area of closed state 3: 1.7%
  AC4, area of closed state 4: 4.2%
  AC5, area of closed state 5: 0.2%
  τC1, mean lifetime of closed state 1: 0.069 ms
  τC2, mean lifetime of closed state 2: 0.35 ms
  τC3, mean lifetime of closed state 3: 2.5 ms
  τC4, mean lifetime of closed state 4: 52 ms
  τC5, mean lifetime of closed state 5: 520 ms
  τO, mean open time: 0.51 ms
V −60 mV, high-Po mode
  AC1, area of closed state 1: 85%
  AC2, area of closed state 2: 9.5%
  AC3, area of closed state 3: 1.2%
  AC4, area of closed state 4: 3.4%
  AC5, area of closed state 5: 0.6%
  τC1, mean lifetime of closed state 1: 0.082 ms
  τC2, mean lifetime of closed state 2: 0.30 ms
  τC3, mean lifetime of closed state 3: 1.6 ms
  τC4, mean lifetime of closed state 4: 44 ms
  τC5, mean lifetime of closed state 5: 230 ms
  τO, mean open time: 0.35 ms
V −80 mV, high-Po mode
  AC1, area of closed state 1: 89%
  AC2, area of closed state 2: 6.0%
  AC3, area of closed state 3: 1.0%
  AC4, area of closed state 4: 2.8%
  AC5, area of closed state 5: 0.8%
  τC1, mean lifetime of closed state 1: 0.110 ms
  τC2, mean lifetime of closed state 2: 0.37 ms
  τC3, mean lifetime of closed state 3: 9.5 ms
  τC4, mean lifetime of closed state 4: 58 ms
  τC5, mean lifetime of closed state 5: 140 ms
  τO, mean open time: 0.27 ms
V −100 mV, high-Po mode
  AC1, area of closed state 1: 88%
  AC2, area of closed state 2: 8.0%
  AC3, area of closed state 3: 0.6%
  AC4, area of closed state 4: 2.2%
  AC5, area of closed state 5: 1.0%
  τC1, mean lifetime of closed state 1: 0.110 ms
  τC2, mean lifetime of closed state 2: 0.37 ms
  τC3, mean lifetime of closed state 3: 3.0 ms
  τC4, mean lifetime of closed state 4: 40 ms
  τC5, mean lifetime of closed state 5: 140 ms
  τO, mean open time: 0.20 ms
